Data set [1] can be described thus: Rapid equilibrium dialysis (RED), fraction unbound in in vitro assay medium. The following applies: bovine, assay medium with 5% FCS, RED 5 h at 37 °C, read-out: f ub (fraction unbound). The data set is classed as in vitro ADME. How it is done:
The assay medium used in the ER-CALUX and the proliferation assay contains 5% FCS, so the RED assay was performed using the assay medium for these two assays and for rat serum. The f ub was determined using the protocol described by Waters et al. ([2008]). The RED device insert has two chambers, a plasma and a buffer chamber. […] After incubating for 5 h at 37 °C at 250 rpm on an orbital shaker, the system reaches equilibrium (van […] et al. [2011]). 25 μL of post-dialysis samples were collected from the plasma and buffer chambers in separate tubes. Simultaneously, 25 μL of corresponding buffer (PBS) was added to the sample taken from the plasma chamber and the same volume of corresponding rat serum or in vitro medium was added to the sample taken from the buffer chamber. Then, 300 μL cold precipitation buffer (90/10 ACN/water) was added to both samples to precipitate the proteins and release the compound. The samples were put on ice for 30 min and subsequently centrifuged for 15 min at 15,000×g (CT 15RE, Hitachi Koki Co., Ltd). Then, the supernatants were collected for UPLC analysis. By determining the compound concentration in each chamber, the fraction unbound can be calculated with the following equation: f ub = concentration in buffer chamber/concentration in plasma chamber (van […] et al. [2011]; Waters et al. [2008]). […]

In a further data set the test system is Caco-2. Conditions: cited from earlier work.
The next data set deals with uterus weight in rats. In words: In vivo uterotrophic assay and BMD analysis (PROAST) of its data. Details: species or system rat. The following applies: for BMD (BMD10) / BMDL (BMDL10) / BMDU (BMDU10): PROAST exponential model, BMR 10%, absolute uterus weight; for BMDL (BMDL10) / BMDU (BMDU10): in mg/kg. As for the experimental part: To that end, a literature research was performed using the search terms uterotrophic assay, rats, oral administration.
Furthermore, benchmark dose (BMD) values derived from the predicted dose–response data were compared with BMD values derived from the dose–response data from the uterotrophic assay as reported in the literature. To that end, BMD modelling was applied on dose–response data using the exponential model for continuous data of the PROAST software from The National Institute for Public Health and the Environment of the Netherlands (RIVM) version 38.9 (Slob [2002]). The benchmark response (BMR) was defined as a 10% increase of response change compared to the control. The predicted dose level with an estimated 10% extra risk obtained is shown as BMD10. The lower and upper limits of the 95% confidence interval on the BMD10 are defined as BMDL10 and BMDU10. In PROAST, BMD values are only reported if the model fit of the data is accepted, so when the software provided BMD values, it was assumed that the data had been adequately modelled. […] For in vivo studies, the absolute uterus weight values were used as input for the response in the continuous model.

Data set [2] concerns uterotrophic growth in rats. The experiment in a line: PBK modelling-based reverse dosimetry of YES assay data and BMD analysis. Details: species or system rat. The source says: For each in vitro concentration–response dataset from the three assays, the PBK modelling-based reverse dosimetry approach was used to predict the dose levels that are required to reach concentrations in blood that were applied in these assays. As it is assumed that the fraction unbound (f ub) of the parent compound induces the toxicity, the possible difference in the f ub in the in vitro assay medium and in rat serum was corrected prior to applying reverse dosimetry. The f ub of E2 and BPA were determined for in vitro assay media and rat serum as described below. PBK modelling-based reverse dosimetry. […] Consequently, for reverse dosimetry, the in vitro unbound concentration (C ub, in vitro) was set equal to the unbound C max in blood (C ub, in vivo) to determine the dose that is required to cause an in vivo estrogenic effect. The C ub, in vitro was estimated based on the equation: C ub, in vitro = C in vitro × f ub, in vitro, where C in vitro is the nominal concentration applied in the in vitro assay and f ub, in vitro is the fraction unbound of the chemical in the in vitro assay medium as determined using the RED assay. The C ub, in vivo was estimated based on the equation: C ub, in vivo = C in vivo × f ub, in vivo, where C in vivo is the nominal blood concentration in rat and fub, in vivo is the fub in rat serum. Assuming that for the prediction of in vivo toxicity, the C ub, in vitro is the same as C ub, in vivo, the nominal blood concentration in rat can be described by the following equation: C in vivo = C ub, in vivo/f ub, in vivo = C ub, in vitro/f ub, in vivo = (C in vitro × f ub, in vitro)/fub, in vivo. By calculating with the PBK model which dose is required to reach a C in vivo, an in vitro concentration can be translated into an in vivo dose. Performing this exercise for all the concentrations applied in the in vitro assays, the in vitro concentration–response curves were translated into predicted in vivo dose–response curves. […]

Setting [3] is: in vivo data of Kanno et al. 2003 (doses in mg/kg bw).
The mark [4] stands for this setting: in vivo data of Tinwell and Ashby 2004 (doses in mg/kg bw).
The mark [5] stands for this setting: in vivo data of Odum et al. 1997 (doses in mg/kg bw).

SMILES strings stand for the structures.

With `CC(C)(c1ccc(O)cc1)c1ccc(O)cc1` [BPA, bisphenol A], in data set [1], the fraction unbound – broadly, free concentration divided by total concentration – at 5 h, 5 µM stood at 0.461 ± 0.035. In addition, in the data set with Caco-2 (PBK model code, ref Yoshkawa et al. 2002), the “Papp, Caco-2” value is on record as 20 x1E-6 cm/sec. Further, the “P app, Caco-2” value in the data set on Caco-2 (ref Yoshikawa et al. [2002]) is 20 ×10⁻⁶ cm/s. Further, the “Fold difference in BMD10 values between the two in vivo studies” value in the data set on uterus weight in rats (Kanno et al. 2003 vs Tinwell and Ashby 2004) stood at 25.8 fold. Also, in the data set on uterus weight in rats (setting [3]), the BMD (BMD10) came out at 207 mg/kg, the “BMDL (BMDL10)” value amounted to 62.66 and the “BMDU (BMDU10)” value came out at 516.80. In addition, in the data set with uterus weight in rats (setting [4]), the BMD (BMD10) is 8.02 mg/kg, the “BMDL (BMDL10)” value stood at 1.00 and the “BMDU (BMDU10)” value was 37.13. In data set [2] (in vivo data from Tinwell and Ashby (2004)), the “Predicted BMDL10 fold higher than BMDL10 of the in vivo data” value is given as 4.7 fold. The “Predicted BMDL10 fold lower than BMDL10 of the in vivo data” value in data set [2] (in vivo data of Kanno et al. (2003)) is 13.4 fold.
As for `C[C@]12CC[C@@H]3c4ccc(O)cc4CC[C@H]3[C@@H]1CC[C@@H]2O` [E2, 17β-estradiol], the fraction unbound at 5 h, 5 µM in data set [1] was 0.628 ± 0.012. In the data set with uterus weight in rats (setting [5]), the BMD (BMD10) was determined as 0.0134 mg/kg, the “BMDL (BMDL10)” value amounted to 0.002915 and the “BMDU (BMDU10)” value is 0.03371. In addition, the “Predicted BMDL10 lower than that of BPA” value in data set [2] (YES assay-based prediction) is on record as 4 orders of magnitude.
